Experimental data taken from patent publication US9199946B2, “Pyrimidinone carboxamide inhibitors of endothelial lipase” (BRISTOL-MYERS SQUIBB COMPANY, priority 2012, dated 2015).
Where two headings read alike, the source gives them in different places.

Molecular target: T1, Endothelial lipase (EL) (Homo sapiens, UniProt Q9Y5X9)
T1 construct: HT-1080 cells, which were transformed by RAGE technology (Athersys) to overexpress endogenous EL; endogenous in cells; conditioned medium used as the enzyme source
T1 sequence (Q9Y5X9 21-500): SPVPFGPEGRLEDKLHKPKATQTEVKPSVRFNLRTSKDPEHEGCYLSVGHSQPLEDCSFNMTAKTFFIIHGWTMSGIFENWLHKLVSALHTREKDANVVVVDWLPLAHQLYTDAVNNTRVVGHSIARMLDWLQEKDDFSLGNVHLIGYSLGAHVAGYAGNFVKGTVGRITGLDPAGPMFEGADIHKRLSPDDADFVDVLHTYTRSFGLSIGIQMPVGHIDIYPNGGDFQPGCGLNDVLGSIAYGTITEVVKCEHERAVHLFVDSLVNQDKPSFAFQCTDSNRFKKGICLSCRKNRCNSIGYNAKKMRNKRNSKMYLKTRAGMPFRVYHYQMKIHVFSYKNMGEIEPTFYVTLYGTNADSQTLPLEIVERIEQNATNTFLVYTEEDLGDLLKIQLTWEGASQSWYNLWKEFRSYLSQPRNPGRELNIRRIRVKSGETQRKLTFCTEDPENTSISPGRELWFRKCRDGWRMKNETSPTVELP
Assay: Endothelial lipase (EL) enzymatic assay with fluorescent substrate A10070 in DMPG vesicles
Assay type: biochemical
Procedure, shortened: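 The enzyme source was conditioned medium from HT-1080 cells engineered to overexpress endogenous EL. It was preincubated with compound for 20 min at 37 °C in 50 mM HEPES pH 8.0, 50 mM NaCl, 1 mM CaCl2. Reactions started with DMPG vesicles carrying FRET substrate A10070 (mole fraction 0.05). The rate was taken from the linear slope of fluorescence (ex 488/em 530 nm) over 10 min.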

[1] = range observed in the EL assay, read-out: EL IC50 values
[2] = conditioned media from HT-1080 cells overexpressing endogenous EL, 20 min preincubation at 37° C., read-out: EL IC50

Structure (SMILES) | IC50 [1] | IC50 [2]
Nc1c(C(=O)NC2CCN(c3ncccc3Cl)C2)[nH]c(=O)[nH]c1=O (stereo not shown) [Example 186, 5-amino-N-(1-(3-chloropyridin-2-yl)pyrrolidin-3-yl)-2,6-dioxo-1,2,3,6-tetrahydropyrimidine-4-carboxamide] | ≤ 10 µM | 0.042 µM
O=C(N[C@H]1CC[C@@H](c2ccccc2)CC1)c1[nH]c(=O)[nH]c(=O)c1NCc1cc(F)cc(C(F)(F)F)c1 [Example 236, 5-(3-fluoro-5-(trifluoromethyl)benzylamino)-2,6-dioxo-N-((1s,4s)-4-phenylcyclohexyl)-1,2,3,6-tetrahydropyrimidine-4-carboxamide] | ≤ 10 µM | –
Nc1c(C(=O)N[C@H]2C[C@@H](c3ccccc3)c3ccccc32)[nH]c(=O)[nH]c1=O [Example 28, 5-amino-2,6-dioxo-N-((1S,3S)-3-phenyl-2,3-dihydro-1H-inden-1-yl)-1,2,3,6-tetrahydropyrimidine-4-carboxamide] | ≤ 10 µM | –
Nc1c(C(=O)N[C@H]2CCc3ccc(-c4ccccc4)cc32)[nH]c(=O)[nH]c1=O [Example 139, (S)-5-amino-2,6-dioxo-N-(6-phenyl-2,3-dihydro-1H-inden-1-yl)-1,2,3,6-tetrahydropyrimidine-4-carboxamide] | ≤ 10 µM | 0.028 µM
CC(C)COc1ccc(C2CCC(NC(=O)c3[nH]c(=O)[nH]c(=O)c3N)C2)cc1 (stereo not shown) [Example 145, 5-amino-N-(3-(4-isobutoxyphenyl)cyclopentyl)-2,6-dioxo-1,2,3,6-tetrahydropyrimidine-4-carboxamide] | ≤ 10 µM | –

More lines, now with the values ahead:

IC50 [1] | IC50 [2] | Structure (SMILES)
≤ 10 µM | – | Nc1c(C(=O)N[C@@H]2CCCc3c(Oc4ccccc4)cccc32)[nH]c(=O)[nH]c1=O [Example 84, (R)-5-amino-2,6-dioxo-N-(5-phenoxy-1,2,3,4-tetrahydronaphthalen-1-yl)-1,2,3,6-tetrahydropyrimidine-4-carboxamide]
≤ 10 µM | – | Nc1c(C(=O)N[C@@H]2CCCc3c(CCc4ccccc4)cccc32)[nH]c(=O)[nH]c1=O [Example 111, (R)-5-amino-2,6-dioxo-N-(5-phenethyl-1,2,3,4-tetrahydronaphthalen-1-yl)-1,2,3,6-tetrahydropyrimidine-4-carboxamide]
≤ 10 µM | – | Nc1c(C(=O)N[C@H]2C[C@@H](c3ccccc3)c3ccccc32)[nH]c(=O)[nH]c1=O (racemic) [Example 18, 5-amino-2,6-dioxo-N-(cis-3-phenyl-2,3-dihydro-1H-inden-1-yl)-1,2,3,6-tetrahydropyrimidine-4-carboxamide]
≤ 10 µM | 0.01 µM | O=C(NC1CCCC(c2cnn(Cc3ccccc3)c2)C1)c1[nH]c(=O)[nH]c(=O)c1O (racemic) [Example 289, N-(3-(1-benzyl-1H-pyrazol-4-yl)cyclohexyl)-5-hydroxy-2,6-dioxo-1,2,3,6-tetrahydropyrimidine-4-carboxamide]
≤ 10 µM | – | COc1ccc2c(c1)CCCC2NC(=O)c1[nH]c(=O)[nH]c(=O)c1N (single isomer, unassigned; enantiomer a) [Example 194, 5-amino-N-(6-methoxy-1,2,3,4-tetrahydronaphthalen-1-yl)-2,6-dioxo-1,2,3,6-tetrahydropyrimidine-4-carboxamide (Enantiomer A)]
